Results reported in the kinase profiling compilation of Christmann-Franck et al. (2016).

Experiments:
Assay in all cases: KINOMEscan competition binding
Settings in all cases: compound 10.0 µM
ALK (human) = ALK (human) (UniProt Q9UM73)
BMPR1B (human) = BMPR1B (human) (UniProt O00238)
BRSK2 (human) = BRSK2 (human) (UniProt Q8IWQ3)
CAMK1G (human) = CAMK1G (human) (UniProt Q96NX5)
CAMKK1 (human) = CAMKK1 (human) (UniProt Q8N5S9)
CDKL3 (human) = CDKL3 (human) (UniProt Q8IVW4)
CIT (human) = CIT (human) (UniProt O14578)
EPHA3 (human) = EPHA3 (human) (UniProt P29320)
EPHA5 (human) = EPHA5 (human) (UniProt P54756)
ERBB2 (human) = ERBB2 (human) (UniProt P04626)
FLT1 (human) = FLT1 (human) (UniProt P17948)
FYN (human) = FYN (human) (UniProt P06241)
HIPK2 (human) = HIPK2 (human) (UniProt Q9H2X6)
HIPK3 (human) = HIPK3 (human) (UniProt Q9H422)
IKBKE (human) = IKBKE (human) (UniProt Q14164)
MAK (human) = MAK (human) (UniProt P20794)
MAP2K6 (human) = MAP2K6 (human) (UniProt P52564)
MAPK10 (human) = MAPK10 (human) (UniProt P53779)
MAPK6 (human) = MAPK6 (human) (UniProt Q16659)
MET (human) = MET (human) (UniProt P08581)
NIM1 (human) = NIM1 (human) (UniProt Q8IY84)
PDGFRB (human) = PDGFRB (human) (UniProt P09619)
PIM2 (human) = PIM2 (human) (UniProt Q9P1W9)
PKN3 (M.tuberculosis) = PKN3 (M.tuberculosis) (UniProt Q6P5Z2)
PLK1 (human) = PLK1 (human) (UniProt P53350)
PRKD2 (human) = PRKD2 (human) (UniProt Q9BZL6)
RPS6KA6 KD1 (human) = RPS6KA6 KD1 (human) (UniProt Q9UK32)
SGK3 (human) = SGK3 (human) (UniProt Q96BR1)
SIK2 (human) = SIK2 (human) (UniProt Q9H0K1)
STK36 (human) = STK36 (human) (UniProt Q9NRP7)
STK38 (human) = STK38 (human) (UniProt Q15208)
TIE1 (human) = TIE1 (human) (UniProt P35590)
TRPM6 (human) = TRPM6 (human) (UniProt Q9BX84)
[1] = molecular target: TYK2 JH1 catalytic (human) (UniProt P29597)
ULK3 (human) = ULK3 (human) (UniProt Q6PHR2)
[2] = tested on: EGFR (human), P00533 [747-751 del / S ins]
[3] = tested on: EGFR (human), P00533 [752-759 del]
[4] = tested on: EGFR (human), P00533 [L858R]
[5] = tested on: EGFR (human), P00533 [T790M/L858R]
[6] = tested on: PIK3CA (human), P42336 [E542K]
PIK3CD (human) = PIK3CD (human) (UniProt O00329)

Chain of ALK (human) (Q9UM73 whole entry, looked up): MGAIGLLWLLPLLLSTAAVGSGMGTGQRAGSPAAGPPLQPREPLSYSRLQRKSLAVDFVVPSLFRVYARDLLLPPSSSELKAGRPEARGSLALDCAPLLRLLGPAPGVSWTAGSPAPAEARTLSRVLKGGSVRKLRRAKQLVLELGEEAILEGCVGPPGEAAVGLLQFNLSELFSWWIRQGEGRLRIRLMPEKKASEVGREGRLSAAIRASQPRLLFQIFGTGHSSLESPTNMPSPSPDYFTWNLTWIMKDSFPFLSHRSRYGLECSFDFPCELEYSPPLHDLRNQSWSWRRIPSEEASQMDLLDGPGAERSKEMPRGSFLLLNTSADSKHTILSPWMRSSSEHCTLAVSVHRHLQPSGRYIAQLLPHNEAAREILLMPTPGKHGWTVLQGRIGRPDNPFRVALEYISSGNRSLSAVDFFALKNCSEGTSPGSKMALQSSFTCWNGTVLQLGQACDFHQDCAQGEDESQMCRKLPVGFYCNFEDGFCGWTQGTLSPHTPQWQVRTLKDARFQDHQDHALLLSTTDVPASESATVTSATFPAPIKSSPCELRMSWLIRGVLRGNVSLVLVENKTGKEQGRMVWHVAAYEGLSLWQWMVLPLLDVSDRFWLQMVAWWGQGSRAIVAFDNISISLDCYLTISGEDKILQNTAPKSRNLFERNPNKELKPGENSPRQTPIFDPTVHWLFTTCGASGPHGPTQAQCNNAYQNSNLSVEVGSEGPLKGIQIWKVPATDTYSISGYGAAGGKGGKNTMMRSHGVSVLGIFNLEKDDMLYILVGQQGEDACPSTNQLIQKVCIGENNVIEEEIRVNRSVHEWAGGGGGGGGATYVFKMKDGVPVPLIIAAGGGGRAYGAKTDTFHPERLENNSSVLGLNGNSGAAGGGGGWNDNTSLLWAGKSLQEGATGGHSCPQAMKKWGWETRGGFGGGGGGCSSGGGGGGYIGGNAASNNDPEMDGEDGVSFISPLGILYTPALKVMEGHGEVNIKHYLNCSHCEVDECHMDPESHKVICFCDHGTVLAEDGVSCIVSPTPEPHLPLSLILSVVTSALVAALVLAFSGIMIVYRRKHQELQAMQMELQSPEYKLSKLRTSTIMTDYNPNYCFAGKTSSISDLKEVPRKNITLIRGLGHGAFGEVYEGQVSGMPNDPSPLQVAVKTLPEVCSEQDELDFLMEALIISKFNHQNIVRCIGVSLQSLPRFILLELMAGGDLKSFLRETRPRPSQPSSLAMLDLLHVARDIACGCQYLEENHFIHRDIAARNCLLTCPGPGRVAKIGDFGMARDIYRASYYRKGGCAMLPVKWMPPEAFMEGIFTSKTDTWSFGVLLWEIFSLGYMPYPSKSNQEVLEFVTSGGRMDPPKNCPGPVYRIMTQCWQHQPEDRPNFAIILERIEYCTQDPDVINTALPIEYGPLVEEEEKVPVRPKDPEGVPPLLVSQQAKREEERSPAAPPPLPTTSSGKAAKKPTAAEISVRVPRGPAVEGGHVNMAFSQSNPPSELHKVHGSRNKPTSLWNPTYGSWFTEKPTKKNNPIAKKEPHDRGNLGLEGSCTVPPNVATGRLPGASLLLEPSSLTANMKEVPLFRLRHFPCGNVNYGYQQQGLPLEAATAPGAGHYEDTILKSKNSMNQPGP
Chain of FLT1 (human) (P17948 whole entry, looked up): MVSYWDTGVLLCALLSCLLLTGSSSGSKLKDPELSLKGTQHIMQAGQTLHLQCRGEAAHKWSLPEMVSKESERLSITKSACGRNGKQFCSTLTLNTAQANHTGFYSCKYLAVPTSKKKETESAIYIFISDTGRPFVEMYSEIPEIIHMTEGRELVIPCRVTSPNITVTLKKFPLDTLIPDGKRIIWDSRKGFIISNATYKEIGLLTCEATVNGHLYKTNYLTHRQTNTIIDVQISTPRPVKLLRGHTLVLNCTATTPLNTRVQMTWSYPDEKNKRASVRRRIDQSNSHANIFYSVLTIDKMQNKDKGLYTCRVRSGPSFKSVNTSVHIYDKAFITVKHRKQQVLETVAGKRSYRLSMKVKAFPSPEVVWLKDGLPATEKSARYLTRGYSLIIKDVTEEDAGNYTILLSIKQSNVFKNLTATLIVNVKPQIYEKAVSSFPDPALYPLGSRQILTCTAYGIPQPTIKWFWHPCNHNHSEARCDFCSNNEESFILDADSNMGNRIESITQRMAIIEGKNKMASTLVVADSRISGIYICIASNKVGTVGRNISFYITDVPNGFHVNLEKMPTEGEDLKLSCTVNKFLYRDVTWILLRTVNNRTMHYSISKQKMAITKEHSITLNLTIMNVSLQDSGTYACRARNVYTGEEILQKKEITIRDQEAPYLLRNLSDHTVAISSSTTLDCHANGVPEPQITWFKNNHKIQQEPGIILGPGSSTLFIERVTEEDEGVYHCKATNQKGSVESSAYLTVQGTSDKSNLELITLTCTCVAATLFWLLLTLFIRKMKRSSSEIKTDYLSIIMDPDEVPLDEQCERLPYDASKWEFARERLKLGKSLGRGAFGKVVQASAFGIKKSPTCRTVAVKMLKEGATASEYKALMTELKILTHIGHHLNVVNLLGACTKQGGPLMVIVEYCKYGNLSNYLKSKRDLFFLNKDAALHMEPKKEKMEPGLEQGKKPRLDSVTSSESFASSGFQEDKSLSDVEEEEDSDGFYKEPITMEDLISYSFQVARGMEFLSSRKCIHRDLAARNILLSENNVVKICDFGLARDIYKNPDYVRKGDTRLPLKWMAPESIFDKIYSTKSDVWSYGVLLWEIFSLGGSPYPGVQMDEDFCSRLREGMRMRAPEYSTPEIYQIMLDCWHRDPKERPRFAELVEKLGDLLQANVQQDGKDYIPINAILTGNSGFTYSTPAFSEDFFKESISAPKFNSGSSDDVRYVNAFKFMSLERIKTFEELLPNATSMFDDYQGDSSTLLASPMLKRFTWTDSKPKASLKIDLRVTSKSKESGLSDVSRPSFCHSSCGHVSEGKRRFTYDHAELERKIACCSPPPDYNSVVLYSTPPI
Chain of HIPK2 (human) (Q9H2X6 whole entry, looked up): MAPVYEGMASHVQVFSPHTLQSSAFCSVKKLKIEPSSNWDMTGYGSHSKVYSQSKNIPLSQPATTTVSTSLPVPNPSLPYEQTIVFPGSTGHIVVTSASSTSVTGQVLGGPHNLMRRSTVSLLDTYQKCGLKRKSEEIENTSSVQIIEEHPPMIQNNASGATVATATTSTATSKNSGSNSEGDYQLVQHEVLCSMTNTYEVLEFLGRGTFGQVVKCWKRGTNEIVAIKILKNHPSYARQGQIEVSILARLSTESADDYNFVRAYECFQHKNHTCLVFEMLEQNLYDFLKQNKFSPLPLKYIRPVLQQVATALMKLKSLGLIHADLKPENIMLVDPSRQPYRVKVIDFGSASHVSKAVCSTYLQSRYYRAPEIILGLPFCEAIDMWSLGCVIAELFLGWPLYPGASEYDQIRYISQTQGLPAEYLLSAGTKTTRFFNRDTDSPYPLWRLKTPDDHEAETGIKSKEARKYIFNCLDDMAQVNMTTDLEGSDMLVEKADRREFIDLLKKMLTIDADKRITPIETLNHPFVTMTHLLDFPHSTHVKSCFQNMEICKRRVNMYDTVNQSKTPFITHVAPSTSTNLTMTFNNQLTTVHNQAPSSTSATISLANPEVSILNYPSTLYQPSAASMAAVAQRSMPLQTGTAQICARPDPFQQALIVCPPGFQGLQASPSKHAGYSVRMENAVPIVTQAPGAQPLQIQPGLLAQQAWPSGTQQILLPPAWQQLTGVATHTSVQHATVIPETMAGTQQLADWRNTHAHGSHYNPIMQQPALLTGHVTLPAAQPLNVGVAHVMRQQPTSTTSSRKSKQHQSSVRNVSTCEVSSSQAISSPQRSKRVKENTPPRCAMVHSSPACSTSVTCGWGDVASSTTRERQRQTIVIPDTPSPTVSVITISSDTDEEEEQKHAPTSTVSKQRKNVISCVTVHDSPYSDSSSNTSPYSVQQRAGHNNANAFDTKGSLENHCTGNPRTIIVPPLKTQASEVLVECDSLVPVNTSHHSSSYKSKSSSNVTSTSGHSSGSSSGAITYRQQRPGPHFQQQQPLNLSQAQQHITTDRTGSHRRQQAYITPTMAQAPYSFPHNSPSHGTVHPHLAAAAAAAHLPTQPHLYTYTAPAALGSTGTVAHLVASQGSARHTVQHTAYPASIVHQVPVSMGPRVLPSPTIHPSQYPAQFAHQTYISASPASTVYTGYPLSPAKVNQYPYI
Chain of STK38 (human) (Q15208 whole entry, looked up): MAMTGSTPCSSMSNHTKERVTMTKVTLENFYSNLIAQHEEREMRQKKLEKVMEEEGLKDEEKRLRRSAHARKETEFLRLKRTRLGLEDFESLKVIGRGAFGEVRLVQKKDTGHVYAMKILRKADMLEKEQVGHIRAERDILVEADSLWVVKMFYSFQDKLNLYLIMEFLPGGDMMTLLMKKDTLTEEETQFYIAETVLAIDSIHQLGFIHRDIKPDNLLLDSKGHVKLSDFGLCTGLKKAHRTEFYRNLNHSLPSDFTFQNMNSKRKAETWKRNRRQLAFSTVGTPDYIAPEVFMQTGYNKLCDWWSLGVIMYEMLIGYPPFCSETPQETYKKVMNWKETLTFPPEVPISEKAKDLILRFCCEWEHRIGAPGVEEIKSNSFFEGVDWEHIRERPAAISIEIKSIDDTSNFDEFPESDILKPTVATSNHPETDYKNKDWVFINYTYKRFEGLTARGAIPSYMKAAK
Chain of BMPR1B (human) (O00238 whole entry, looked up): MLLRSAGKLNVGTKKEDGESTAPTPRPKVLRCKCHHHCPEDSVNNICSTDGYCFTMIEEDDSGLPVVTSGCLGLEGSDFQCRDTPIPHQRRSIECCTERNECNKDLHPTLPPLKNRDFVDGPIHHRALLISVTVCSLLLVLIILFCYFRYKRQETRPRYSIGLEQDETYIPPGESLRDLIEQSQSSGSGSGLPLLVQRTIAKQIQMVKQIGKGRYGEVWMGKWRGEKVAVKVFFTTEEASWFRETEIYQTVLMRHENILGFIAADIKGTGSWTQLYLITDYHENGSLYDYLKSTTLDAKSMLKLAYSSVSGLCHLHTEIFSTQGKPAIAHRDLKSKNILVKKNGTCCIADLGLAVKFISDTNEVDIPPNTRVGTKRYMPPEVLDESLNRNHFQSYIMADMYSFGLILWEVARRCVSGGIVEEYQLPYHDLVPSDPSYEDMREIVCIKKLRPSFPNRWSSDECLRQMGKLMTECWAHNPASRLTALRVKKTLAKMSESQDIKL

Row | SMILES | kinase still bound, per cent of control (ALK (human)) | kinase still bound, per cent of control (BMPR1B (human)) | kinase still bound, per cent of control (BRSK2 (human)) | kinase still bound, per cent of control (CAMK1G (human)) | kinase still bound, per cent of control (CAMKK1 (human)) | per cent of control (CDKL3 (human)) | kinase still bound, per cent of control (CIT (human)) | kinase still bound, per cent of control (EPHA3 (human)) | kinase still bound, per cent of control (EPHA5 (human)) | kinase still bound, per cent of control (ERBB2 (human)) | kinase still bound, per cent of control (FLT1 (human)) | kinase still bound, per cent of control (FYN (human)) | kinase still bound, per cent of control (HIPK2 (human)) | kinase still bound, per cent of control (HIPK3 (human)) | kinase still bound, per cent of control (IKBKE (human)) | kinase still bound, per cent of control (MAK (human)) | kinase still bound, per cent of control (MAP2K6 (human)) | kinase still bound, per cent of control (MAPK10 (human)) | kinase still bound, per cent of control (MAPK6 (human)) | kinase still bound, per cent of control (NIM1 (human)) | also measured
1 | CC(C)n1nc(-c2cc3cc(O)ccc3[nH]2)c2c(N)ncnc21 | 41% | 0.1% | 0.95% | 77% | 49% | 100% | 66% | 1.5% | 55% | 29% | 25% | 4.6% | 0.9% | 0.9% | 70% | 99% | 70% | 72% | 52% | 88% | kinase still bound, per cent of control (MET (human)): 73%; kinase still bound, per cent of control (PDGFRB (human)): 0%; kinase still bound, per cent of control (PIM2 (human)): 0.6%; kinase still bound, per cent of control (PKN3 (M.tuberculosis)): 24%; kinase still bound, per cent of control (PLK1 (human)): 87%; kinase still bound, per cent of control (PRKD2 (human)): 100%; kinase still bound, per cent of control (RPS6KA6 KD1 (human)): 4.6%; kinase still bound, per cent of control (SGK3 (human)): 81%; kinase still bound, per cent of control (SIK2 (human)): 9.4%; kinase still bound, per cent of control (STK36 (human)): 100%; kinase still bound, per cent of control (STK38 (human)): 60%; kinase still bound, per cent of control (TIE1 (human)): 49%; kinase still bound, per cent of control (TRPM6 (human)): 70%; kinase still bound, per cent of control [1]: 8.2%; kinase still bound, per cent of control (ULK3 (human)): 65%
2 | COC(=O)Nc1ccc(-c2nc(N3CCOCC3)c3cnn(C4CCN(C(=O)OC)CC4)c3n2)cc1 | 100% | 78% | 100% | 92% | 100% | 64% | 98% | 84% | 100% | 100% | 100% | 99% | 65% | 72% | 81% | 100% | 90% | 100% | 100% | 100% | kinase still bound, per cent of control [2]: 100%; kinase still bound, per cent of control [3]: 100%; kinase still bound, per cent of control [4]: 100%; kinase still bound, per cent of control [5]: 100%; kinase still bound, per cent of control (PDGFRB (human)): 100%; kinase still bound, per cent of control [6]: 5.2%; kinase still bound, per cent of control (PIK3CD (human)): 40%; kinase still bound, per cent of control (PIM2 (human)): 100%; kinase still bound, per cent of control (PKN3 (M.tuberculosis)): 73%; kinase still bound, per cent of control (PLK1 (human)): 90%; kinase still bound, per cent of control (PRKD2 (human)): 100%; kinase still bound, per cent of control (RPS6KA6 KD1 (human)): 86%; kinase still bound, per cent of control (SGK3 (human)): 99%; kinase still bound, per cent of control (SIK2 (human)): 100%; kinase still bound, per cent of control (STK36 (human)): 91%; kinase still bound, per cent of control (STK38 (human)): 88%; kinase still bound, per cent of control (TIE1 (human)): 99%; kinase still bound, per cent of control (TRPM6 (human)): 100%; kinase still bound, per cent of control [1]: 100%; kinase still bound, per cent of control (ULK3 (human)): 88%
